For one assay, the system named is 90 kinase proteins. In words: KINOMEscan off-target binding panel (whole panel). As to conditions: 20 μM.
The subject of assay [1] is dystrophic golden retriever (GRMD) dogs. In words: Habitual activity in GRMD dogs (FitBark). The class given is in vivo, dog. Conditions: 2 mg/kg daily for 4 days, then every other day. The method, then:
Studies were performed in two phases. In the first phase, GRMD (n = 4, female, 7 months old) were dosed PO daily with vehicle for 2 weeks, followed by a suspension of EDG-5506 (3 mg/kg daily for 2 days, then 1 mg/kg daily for 2 weeks) and then with vehicle for 2 weeks. Blood was drawn at regular intervals (2–3 draws during the vehicle baseline, 5–8 draws during the dosing period, and 2 draws during the vehicle washout). In a separate dosing period, the same 4 dogs (10 months old) were administered vehicle for 14 days with regular blood draws (6–9 for each dog across the 14-day period). CK activity (Pointe Scientific, Thermo Fisher Scientific) was measured from plasma. In the second phase, the same 4 dogs (15 months old) were fitted with a collar-bound activity monitor (Fitbark 2, Fitbark Inc.) as described previously ([42]), and baseline activity was recorded for 27 days before daily oral gavage with vehicle for 22 days. Three dogs were then dosed in a similar pattern to phase 1 with EDG-5506 (2 mg/kg for 4 days and then 2 mg/kg every other day for 7 days). The fourth dog was dosed with vehicle over the same period. Dogs were then returned to vehicle for a further 12 days. Average daily activity (“Fitbark points”) and time performing various activities (play, rest, active) were recorded.

Another assay addresses T1, IGF1R (Homo sapiens, UniProt P08069).
T1 construct: purchased Eurofins DiscoverX (KINOMEscan; SAFETYscan E/IC50 ELECT)
Kind of assay: KINOMEscan scanEDGE. As to conditions: 20 uM. The format is binding.

In the next assay the target is T2, JNK3 (Homo sapiens, UniProt P53779).
T2 construct: purchased Eurofins DiscoverX (KINOMEscan; SAFETYscan E/IC50 ELECT)
In words: KINOMEscan scanEDGE. The format is binding. Conditions: 20 uM.

Assay [2] concerns the target T3, slow bovine masseter skeletal myofibrils (Bos taurus, UniProt Q9BE39).
T3 construct: from tissue; host or cells: bovine masseter muscle
Kind of assay: Myofibril ATPase, bovine masseter. The format is biochemical. Conditions: 100% type I, at pCa50.

The next assay concerns the target T4, PRKCE (Homo sapiens, UniProt Q02156).
T4 construct: purchased Eurofins DiscoverX (KINOMEscan; SAFETYscan E/IC50 ELECT)
Kind of assay: KINOMEscan scanEDGE. The format is binding. Conditions: 20 uM.

In the next assay the target is T5, TRKA (Homo sapiens, UniProt P04629).
T5 construct: purchased Eurofins DiscoverX (KINOMEscan; SAFETYscan E/IC50 ELECT)
Kind of assay: KINOMEscan scanEDGE. The format is binding. Conditions: 20 uM.

The structures appear in SMILES notation. Where only a bound is given, the exact number is not on record here.

T5 sequence (P04629 33-796): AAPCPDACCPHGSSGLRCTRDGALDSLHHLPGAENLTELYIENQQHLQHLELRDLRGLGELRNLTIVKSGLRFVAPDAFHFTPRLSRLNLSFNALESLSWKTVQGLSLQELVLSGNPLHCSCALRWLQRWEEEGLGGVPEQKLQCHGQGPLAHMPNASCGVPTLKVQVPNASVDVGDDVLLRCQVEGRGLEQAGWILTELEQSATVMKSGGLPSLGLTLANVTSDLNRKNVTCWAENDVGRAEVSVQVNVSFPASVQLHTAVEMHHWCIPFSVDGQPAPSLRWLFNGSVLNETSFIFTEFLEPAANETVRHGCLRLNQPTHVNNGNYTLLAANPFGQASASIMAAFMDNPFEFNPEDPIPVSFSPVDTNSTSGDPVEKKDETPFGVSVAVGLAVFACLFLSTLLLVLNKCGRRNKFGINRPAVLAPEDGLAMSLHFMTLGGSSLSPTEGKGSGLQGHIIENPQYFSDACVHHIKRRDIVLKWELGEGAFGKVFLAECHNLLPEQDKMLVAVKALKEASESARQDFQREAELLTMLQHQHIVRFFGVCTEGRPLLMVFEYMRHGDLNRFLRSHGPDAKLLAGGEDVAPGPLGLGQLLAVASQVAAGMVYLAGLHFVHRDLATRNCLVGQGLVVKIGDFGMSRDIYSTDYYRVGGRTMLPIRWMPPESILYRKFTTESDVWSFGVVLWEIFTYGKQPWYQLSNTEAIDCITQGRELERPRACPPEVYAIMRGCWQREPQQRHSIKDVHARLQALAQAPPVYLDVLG
T4 sequence (Q02156 whole entry): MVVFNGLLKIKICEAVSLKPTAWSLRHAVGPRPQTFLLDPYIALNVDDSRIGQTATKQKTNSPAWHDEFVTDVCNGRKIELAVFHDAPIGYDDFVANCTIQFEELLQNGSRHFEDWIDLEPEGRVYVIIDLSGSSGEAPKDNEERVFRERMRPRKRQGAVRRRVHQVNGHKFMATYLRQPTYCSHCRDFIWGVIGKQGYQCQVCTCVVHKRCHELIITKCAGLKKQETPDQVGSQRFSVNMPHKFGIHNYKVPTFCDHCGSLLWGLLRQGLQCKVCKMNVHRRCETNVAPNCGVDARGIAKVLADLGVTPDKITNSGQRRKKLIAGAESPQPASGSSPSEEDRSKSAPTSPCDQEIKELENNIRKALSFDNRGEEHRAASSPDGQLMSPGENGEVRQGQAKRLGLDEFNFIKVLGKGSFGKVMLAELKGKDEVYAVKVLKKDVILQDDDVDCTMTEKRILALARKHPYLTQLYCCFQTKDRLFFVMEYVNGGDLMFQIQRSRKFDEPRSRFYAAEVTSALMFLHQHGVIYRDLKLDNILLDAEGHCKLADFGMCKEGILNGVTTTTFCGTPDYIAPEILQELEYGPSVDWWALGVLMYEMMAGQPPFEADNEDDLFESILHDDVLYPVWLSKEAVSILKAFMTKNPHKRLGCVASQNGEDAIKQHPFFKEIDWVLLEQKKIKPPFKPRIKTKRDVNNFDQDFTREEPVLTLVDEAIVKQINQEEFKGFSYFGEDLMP
T3 sequence (Q9BE39 whole entry): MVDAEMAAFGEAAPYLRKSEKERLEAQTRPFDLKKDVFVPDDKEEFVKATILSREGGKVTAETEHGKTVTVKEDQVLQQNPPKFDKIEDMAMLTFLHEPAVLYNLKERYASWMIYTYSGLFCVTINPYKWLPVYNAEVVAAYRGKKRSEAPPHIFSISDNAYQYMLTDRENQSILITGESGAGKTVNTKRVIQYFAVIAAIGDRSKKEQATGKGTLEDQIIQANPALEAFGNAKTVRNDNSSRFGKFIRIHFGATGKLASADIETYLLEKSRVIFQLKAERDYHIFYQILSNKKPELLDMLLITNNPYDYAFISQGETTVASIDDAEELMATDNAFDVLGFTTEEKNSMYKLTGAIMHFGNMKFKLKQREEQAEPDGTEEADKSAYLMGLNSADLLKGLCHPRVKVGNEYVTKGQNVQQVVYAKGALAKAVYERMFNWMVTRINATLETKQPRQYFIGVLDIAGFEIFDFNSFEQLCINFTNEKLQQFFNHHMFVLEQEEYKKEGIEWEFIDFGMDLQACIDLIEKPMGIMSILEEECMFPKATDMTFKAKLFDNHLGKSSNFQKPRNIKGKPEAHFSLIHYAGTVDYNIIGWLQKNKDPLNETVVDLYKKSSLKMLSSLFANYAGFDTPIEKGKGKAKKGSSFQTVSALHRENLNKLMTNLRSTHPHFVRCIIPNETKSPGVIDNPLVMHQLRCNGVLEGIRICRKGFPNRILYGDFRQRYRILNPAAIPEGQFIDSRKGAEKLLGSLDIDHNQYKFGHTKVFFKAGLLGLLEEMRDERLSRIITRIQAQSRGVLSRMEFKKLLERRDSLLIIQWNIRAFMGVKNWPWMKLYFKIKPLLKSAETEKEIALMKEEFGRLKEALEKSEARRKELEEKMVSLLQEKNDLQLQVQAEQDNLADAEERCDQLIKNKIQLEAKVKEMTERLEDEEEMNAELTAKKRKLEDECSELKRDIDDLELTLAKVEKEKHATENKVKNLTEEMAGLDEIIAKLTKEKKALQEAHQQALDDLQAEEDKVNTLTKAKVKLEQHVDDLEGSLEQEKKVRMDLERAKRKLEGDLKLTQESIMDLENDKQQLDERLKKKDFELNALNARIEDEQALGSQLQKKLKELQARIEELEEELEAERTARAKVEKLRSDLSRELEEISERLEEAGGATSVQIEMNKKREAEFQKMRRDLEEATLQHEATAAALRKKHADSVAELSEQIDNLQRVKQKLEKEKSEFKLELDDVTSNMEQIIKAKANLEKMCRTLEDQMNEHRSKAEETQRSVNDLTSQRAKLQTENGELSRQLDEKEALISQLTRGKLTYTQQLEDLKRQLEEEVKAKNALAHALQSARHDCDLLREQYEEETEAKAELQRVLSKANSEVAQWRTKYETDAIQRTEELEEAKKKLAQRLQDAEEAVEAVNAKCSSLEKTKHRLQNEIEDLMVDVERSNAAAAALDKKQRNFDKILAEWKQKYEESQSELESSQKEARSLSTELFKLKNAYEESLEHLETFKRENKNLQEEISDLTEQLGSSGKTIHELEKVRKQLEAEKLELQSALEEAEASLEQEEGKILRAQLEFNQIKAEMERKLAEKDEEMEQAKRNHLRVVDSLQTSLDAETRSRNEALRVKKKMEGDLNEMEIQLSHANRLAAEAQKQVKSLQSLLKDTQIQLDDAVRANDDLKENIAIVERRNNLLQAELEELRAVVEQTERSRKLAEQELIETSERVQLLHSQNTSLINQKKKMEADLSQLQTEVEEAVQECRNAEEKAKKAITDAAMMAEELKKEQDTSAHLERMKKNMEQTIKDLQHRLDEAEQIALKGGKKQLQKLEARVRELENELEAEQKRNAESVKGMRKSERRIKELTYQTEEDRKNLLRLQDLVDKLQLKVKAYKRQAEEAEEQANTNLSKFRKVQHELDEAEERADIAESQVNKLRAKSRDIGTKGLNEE
T3 sequence (P85100 whole entry partner): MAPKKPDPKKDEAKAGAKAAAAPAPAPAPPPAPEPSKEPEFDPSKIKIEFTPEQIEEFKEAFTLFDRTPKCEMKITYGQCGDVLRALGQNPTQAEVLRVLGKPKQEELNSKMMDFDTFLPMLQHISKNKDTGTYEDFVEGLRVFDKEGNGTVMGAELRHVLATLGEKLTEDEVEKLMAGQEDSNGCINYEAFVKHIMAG
T3 sequence (Q3SZE5 whole entry partner): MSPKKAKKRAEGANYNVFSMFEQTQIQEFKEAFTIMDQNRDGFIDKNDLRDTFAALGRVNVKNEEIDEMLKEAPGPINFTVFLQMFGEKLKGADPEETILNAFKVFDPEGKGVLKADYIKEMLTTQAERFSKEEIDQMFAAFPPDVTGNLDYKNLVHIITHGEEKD
T2 sequence (P53779 whole entry): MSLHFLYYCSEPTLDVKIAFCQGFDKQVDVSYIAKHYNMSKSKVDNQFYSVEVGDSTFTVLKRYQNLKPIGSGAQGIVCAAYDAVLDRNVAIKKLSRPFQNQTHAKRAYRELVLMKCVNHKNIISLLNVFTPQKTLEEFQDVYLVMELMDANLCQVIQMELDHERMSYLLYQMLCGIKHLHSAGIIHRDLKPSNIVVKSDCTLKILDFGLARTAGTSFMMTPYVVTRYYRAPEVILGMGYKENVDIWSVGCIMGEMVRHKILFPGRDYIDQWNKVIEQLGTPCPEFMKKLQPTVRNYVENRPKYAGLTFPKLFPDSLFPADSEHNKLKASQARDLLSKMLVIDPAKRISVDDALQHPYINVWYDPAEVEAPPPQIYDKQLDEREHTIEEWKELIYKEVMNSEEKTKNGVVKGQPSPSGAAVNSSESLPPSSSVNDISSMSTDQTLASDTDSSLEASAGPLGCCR

A word on the IC50: it is the concentration needed to halve the response being measured. Consider `O=c1ccc(-c2cnc(OCC(F)(F)F)nc2)nn1Cc1cncc(F)c1` [EDG-5506], for which the “binding affinity with kinase panel” value in the assay with 90 kinase proteins was “did not exhibit any binding affinity”. In addition, the “improvement of average daily activity” value in assay [1] was “more than 30%”. Besides, the “binding, % of control” value on IGF1R is listed as 94 % of control; at JNK3, 81 % of control; on PRKCE, 81 % of control; on TRKA, 98 % of control. In assay [2], this compound came in with an IC50 of over 100 µM.

Values taken from article PMC10178848, “Modulating fast skeletal muscle contraction protects skeletal muscle in animal models of Duchenne muscular dystrophy” (The Journal of Clinical Investigation, 2023).
